In US3979508A, “Compositions and methods therewith for penicillin hypersensitivity detection” (Kremers-Urban Company, priority 1975, dated 1976):

Legend:
[1] = system: penicillin hypersensitivity (patients); test: Skin tests for penicillin hypersensitivity: monostereoisomeric penicilloyl-poly-L-lysine vs mixture of stereoisomers (Table II); assay type: in vivo, human
Description: (§1) One of the uses for the conjugates of this invention is in skin testing for penicillin hypersensitivity. The conjugated compositions are prepared for skin testing by first dissolving the composition in buffered isotonic solutions, having a pH in the range from 7 to 8. For example, the conjugates prepared above may be diluted with aqueous solutions 0.15 M NaCl in 0.01 M phosphate, pH 7.6. In addition, other physiological salt solutions may be used.
(§2) Intradermal injections may be made of the foregoing solutions with a 26 guage needle, the volume injected may be generally about 0.01 to 0.03 cc. Alternatively, the conjugate may be applied by the scratch test technique. The development of a wheal at the injection site after about 20 minutes indicates a positive reaction, and penicillin hypersensitivity.
(§3) Penicillin hypersensitivity tests carried out with the conjugate compositions of this invention reflect the numerous advantages of penicillin hypersensitivity determinations made with such compositions. […] In Table II the distribution of skin reactions is shown by history of penicillin therapy and hypersensitivity. […] (See column 2, for example, showing the percentages of patients tested who had […] skin test.)

[2] = system: penicillin hypersensitivity (patients); test: Comparison of skin tests with penicilloyl-poly-L-lysine and penicillin G (Table III); assay type: in vivo, human; details: 1163 tested
Description: as §1, §2, §3

[3] = GROUP I: claimed prior history of non-sensitivity and previous penicillin treatments
[4] = GROUP II: claimed prior history of sensitivity and previous penicillin treatments
[5] = GROUP III: no prior history of sensitivity and no previous penicillin treatments

## penicilloyl-poly-L-lysine [PPL]
[1]; [3]
  NEGATIVE SKIN TESTS %: 91.5%
  NEGATIVE SKIN TESTS No.: 4223
  NEITHER NEGATIVE NOR POSITIVE SKIN TESTS %: 0.7%
  NEITHER NEGATIVE NOR POSITIVE SKIN TESTS No.: 36
  POSITIVE SKIN TESTS %: 7.8%
  POSITIVE SKIN TESTS No.: 358
[1]; [4]
  NEGATIVE SKIN TESTS %: 77.7%
  NEGATIVE SKIN TESTS No.: 143
  NEITHER NEGATIVE NOR POSITIVE SKIN TESTS %: nil
  NEITHER NEGATIVE NOR POSITIVE SKIN TESTS No.: nil
  POSITIVE SKIN TESTS %: 22.3%
  POSITIVE SKIN TESTS No.: 41
[1]; [5]
  NEGATIVE SKIN TESTS %: 96.5%
  NEGATIVE SKIN TESTS No.: 637
  NEITHER NEGATIVE NOR POSITIVE SKIN TESTS %: 0.2%
  NEITHER NEGATIVE NOR POSITIVE SKIN TESTS No.: 1
  POSITIVE SKIN TESTS %: 3.3%
  POSITIVE SKIN TESTS No.: 22
[1]; TOTALS, all groups
  NEGATIVE SKIN TESTS %: 91.6%
  NEGATIVE SKIN TESTS No.: 5003
  NEITHER NEGATIVE NOR POSITIVE SKIN TESTS %: 0.7%
  NEITHER NEGATIVE NOR POSITIVE SKIN TESTS No.: 37
  POSITIVE SKIN TESTS %: 7.7%
  POSITIVE SKIN TESTS No.: 421
[2]
  POSITIVE SKIN TESTS %: 17.9%
  Positive Skin Tests, Number of Patients: 209
